The record followed here is EP0938471B1, “THE PREPARATION AND USE OF ORTHO-SULFONAMIDO ARYL HYDROXAMIC ACIDS AS MATRIX METALLOPROTEINASE AND TACE INHIBITORS” (priority 1996, dated 1998).

The target of test [1] is T1, MMP-9 (Homo sapiens, UniProt P14780). Description: In vivo MMP inhibition (enzyme in implanted dialysis tubing). More on the design: species or system rat (Sprague-Dawley) or mouse (CD-1). As to the method:
A 2 cm piece of dialysis tubing (molecular weight cut-off 12-14,000, 10 mm flat width) containing matrix metalloproteinase enzyme (stromelysin, collagenase or gelatinase in 0.5 mL of buffer) is implanted either ip or sc (in the back) of a rat (Sprague-Dawley, 150-200g) or mouse (CD-1,25-50g) under anesthesia. Drugs are administered PO, IP, SC or IV through a canula in the jugular vein. Drugs are administered in a dose volume of 0.1 to 0.25 mL/animal. Contents of the dialysis tubing is collected and enzyme activity assayed. Enzyme reaction rates for each dialysis tube are calculated. Tubes from at least 3 different animals are used to calculate the mean± sem. Statistical significance (p<0.05) of vehicle-treated animals versus drug-treated animals is determined by analysis of variance. (Agents and Actions 21: 331, 1987).

A further test has as its target TACE (Homo sapiens, UniProt P78536). The test can be described thus: TACE inhibition (fluorescent peptidyl substrate). Format: biochemical. To be noted: for inhibition at 1 µM: at 1µM concentration.
For a further test, the target named is T2, MMP-1 (Homo sapiens, UniProt P03956).
T2 sequence (P03956 100-469): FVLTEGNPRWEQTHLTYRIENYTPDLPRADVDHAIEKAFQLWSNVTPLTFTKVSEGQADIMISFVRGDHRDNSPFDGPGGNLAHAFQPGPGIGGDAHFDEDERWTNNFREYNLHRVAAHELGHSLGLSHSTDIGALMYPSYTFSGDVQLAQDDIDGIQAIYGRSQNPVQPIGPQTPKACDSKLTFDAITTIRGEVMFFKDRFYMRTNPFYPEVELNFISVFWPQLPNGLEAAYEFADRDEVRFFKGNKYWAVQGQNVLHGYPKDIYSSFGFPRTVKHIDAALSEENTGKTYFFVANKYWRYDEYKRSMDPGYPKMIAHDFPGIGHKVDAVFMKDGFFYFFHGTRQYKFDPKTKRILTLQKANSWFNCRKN
The test can be described thus: MMP-1 inhibition (thiopeptide or fluorescent peptide substrate assay). Format: biochemical. To be noted: for IC50: read-out: MMP-1 IC50; for MMP-1 % inhibition: concentration given as (10), unit not given.

Test [2] deals with T1, MMP-9. The test can be described thus: MMP-9 inhibition (thiopeptide or fluorescent peptide substrate assay). As to conditions: for IC50: read-out: MMP-9 IC50; for inhibition at 1 µM: read-out: MMP-9 % inhibition, footnote: 1µM. In kind it is biochemical.
The next test deals with MMP-13 (Homo sapiens, UniProt P45452). The test can be described thus: MMP-13 inhibition (thiopeptide or fluorescent peptide substrate assay). In kind it is biochemical. To be noted: for MMP-13 % inhibition: concentration given as (.1), unit not given.
A further test concerns cartilage. Description: Cartilage degradation in the rat (cartilage-sponge implant). In kind it is in vivo, rat (Lewis strain). As to conditions: average daily dose 50 mg/kg, intraperitoneal osmotic minipump; for % Inhibition of Cartilage Collagen Loss: * = p<0.05 vs vehicle-treated rats. As to the method: Twenty mg slices of cartilage are obtained from the knee of freshly slaughtered cattle. Discs of cellulose sponge, 6 mm in diameter, are cut and a 2 mm hole put in the center of the sponge. 100 µl of a sterile suspension containing 1 mg of heat-killed Mycobacterium tuberculosis is applied to the sponge. After air-drying overnight, the sponges are autoclaved and a cartilage slice is placed in the hole cut in the sponge disc. Under sterile conditions, the cartilage-sponge disc is placed subcutaneously in the back of an anesthetized rat (Lewis strain, 200 to 250 g). The incision is closed with staples and the rat allowed to recover from anesthesia. Approximately 5 days after sponge implantation, osmotic minipumps (Alza Corp., Palo Alto, CA), containing either investigational compound or vehicle were implanted intraperitoneally in the anesthetized rat under sterile conditions After 19 days, the rats are euthanized by asphyxiation with CO2 and the granulomas containing the implanted sponge excised from the surrounding tissue.
The weight of the piece of cartilage recovered from the sponge was recorded and the collagen content of the cartilage was determined. The mean of the cartilage weights and collagen content was determined for the vehicle and drug-treated groups. The inhibition of cartilage weight and collagen content loss produced by the compounds compared with vehicle-treated rats was determined. Statistical significance (p< 0.05) of vehicle-treated animals versus drug-treated animals was determined by analysis of variance.
Reference: Bishop J., Greenham AK., Lewis EJ. A novel in vivo model for the study of cartilage degradation. J. Pharmacol. Toxicol. Methods, 30:19-25, 1993.

The mark [3] stands for this setting: 100 mg/kg, ip (intraperitoneal).

Where a name gives a salt, the structure may show the parent alone. Read-outs that look alike come from different tables or passages of the source. Where only a bound is given, the exact number is not on record here.

T1 sequence (P14780 94-707): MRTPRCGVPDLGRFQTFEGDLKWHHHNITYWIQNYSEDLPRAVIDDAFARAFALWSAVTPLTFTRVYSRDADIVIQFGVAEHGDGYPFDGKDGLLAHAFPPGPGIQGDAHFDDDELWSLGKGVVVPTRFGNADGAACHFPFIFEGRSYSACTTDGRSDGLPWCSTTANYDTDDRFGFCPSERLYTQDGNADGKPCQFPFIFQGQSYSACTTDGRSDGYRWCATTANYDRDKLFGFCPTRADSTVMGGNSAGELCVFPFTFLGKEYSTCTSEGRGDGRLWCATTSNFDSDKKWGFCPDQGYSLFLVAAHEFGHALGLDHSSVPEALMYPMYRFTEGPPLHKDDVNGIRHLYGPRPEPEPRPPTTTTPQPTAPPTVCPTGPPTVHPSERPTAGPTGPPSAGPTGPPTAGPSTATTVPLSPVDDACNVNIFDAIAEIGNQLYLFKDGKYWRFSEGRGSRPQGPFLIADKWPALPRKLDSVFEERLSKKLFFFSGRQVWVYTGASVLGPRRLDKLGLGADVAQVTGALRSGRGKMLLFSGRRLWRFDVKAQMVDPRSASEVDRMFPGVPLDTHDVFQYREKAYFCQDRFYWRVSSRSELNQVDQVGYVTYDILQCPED
Chain of TACE (P78536 215-824): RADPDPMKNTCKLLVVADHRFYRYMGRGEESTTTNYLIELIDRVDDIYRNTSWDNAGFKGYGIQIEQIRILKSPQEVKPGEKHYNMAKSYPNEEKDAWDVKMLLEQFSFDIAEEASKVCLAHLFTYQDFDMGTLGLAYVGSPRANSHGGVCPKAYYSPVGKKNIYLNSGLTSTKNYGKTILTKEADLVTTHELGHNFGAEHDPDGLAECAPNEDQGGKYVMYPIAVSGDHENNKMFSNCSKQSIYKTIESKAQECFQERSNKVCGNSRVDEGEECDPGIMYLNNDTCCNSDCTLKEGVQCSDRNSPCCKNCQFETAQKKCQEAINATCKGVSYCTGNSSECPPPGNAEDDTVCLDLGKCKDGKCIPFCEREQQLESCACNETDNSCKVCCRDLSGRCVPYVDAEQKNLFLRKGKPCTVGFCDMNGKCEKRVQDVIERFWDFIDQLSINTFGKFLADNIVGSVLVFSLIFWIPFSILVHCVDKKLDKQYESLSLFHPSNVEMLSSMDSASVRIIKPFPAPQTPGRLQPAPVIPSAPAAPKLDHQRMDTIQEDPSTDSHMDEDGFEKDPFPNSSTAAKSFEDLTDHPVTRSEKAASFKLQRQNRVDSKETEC

For the molecule `COc1ccc(S(=O)(=O)N(Cc2ccccc2)c2c(C)cc(Br)cc2C(=O)NO)cc1` [Example 25, 2-[Benzyl-(4-methoxy-benzenesulfonyl)-amino]-5-bromo-N-hydroxy-3-methyl-benzamide], the “in-vivo MMP % inhibition vs. MMP-9” value at MMP-9 [1] (setting [3]) is reported as 32%(100), ip. Also, the IC50 at TACE (read-out: TACE IC50) was over 1000 nM.

In the case of `COc1ccc(S(=O)(=O)N(Cc2ccccc2)c2c(OCc3ccccc3)cccc2C(=O)NO)cc1` [Example 34, 2-[Benzyl-(4-methoxy-benzenesulfonyl)-amino]-3-benzyloxy-N-hydroxy-benzamide], the IC50 on MMP-1 is 281 nM; on MMP-9 [2] it was 28 nM; on MMP-13 (read-out: MMP-13 IC50), 69 nM; on TACE (read-out: TACE IC50), over 1000 nM. In addition, at MMP-9 [1] (setting [3]), the “in-vivo MMP % inhibition vs. MMP-9” value is reported as 31.6(100), ip %.

On to `COc1ccc(S(=O)(=O)N(Cc2cccnc2)c2c(C)cccc2C(=O)NO)cc1` [Example 61, N-Hydroxy-2-[(4-methoxy-benzenesulfonyl)-pyridin-3-ylmethyl-amino]-3-methyl-benzamide], for which the “in-vivo MMP % inhibition vs. MMP-9” value is reported as 46(20), po % at MMP-9 [1] (20 mg/kg, po (oral)) and 59(50), po % on MMP-9 [1] (50 mg/kg, po (oral)). The IC50 on TACE (read-out: TACE IC50) came out at 289 nM.

Turning to `COc1ccc(S(=O)(=O)N(Cc2cccnc2)c2c(C)cccc2C(=O)NO)cc1` [Example 83, N-Hydroxy-2-[(4-methoxy-benzenesulfonyl)-pyridin-3-ylmethyl-amino]-3-methyl-benzamide], in the test on cartilage, the “% Inhibition of Cartilage Weight Loss” value came to 44.6% and the “% Inhibition of Cartilage Collagen Loss” value is on record as 51.2* %.

Regarding `COc1ccc(S(=O)(=O)N(Cc2cccnc2)c2c(C)cc(Br)cc2C(=O)NO)cc1` [Example 91, 5-Bromo-N-hydroxy-2-[(4-methoxy-benzenesulfonyl)-pyridin-3-ylmethyl-amino]-3-methyl-benzamide], the IC50 at MMP-9 [2] stood at 24 nM; on MMP-13 (read-out: MMP-13 IC50) it was 20 nM. Further, the “in-vivo MMP % inhibition vs. MMP-9” value at MMP-9 [1] (100 mg/kg, po (oral)) is reported as 55(100), po %.

Consider `CCCN(c1c(C)cc(C)cc1C(=O)NO)S(=O)(=O)c1ccc(OC)cc1` [Example 117, N-Hydroxy-2-[(4-methoxy-benzenesulfonyl)-propyl-amino]-3,5-dimethyl-benzamide], for which the IC50 at MMP-1 worked out at 114 nM; at MMP-9 [2], 10 nM; at MMP-13 (read-out: MMP-13 IC50) it was 10 nM; on TACE (read-out: TACE IC50), 154 nM. For the same molecule, the “in-vivo MMP % inhibition vs. MMP-9” value at MMP-9 [1] (setting [3]) is reported as 28.3(100), ip %.

Regarding `COc1ccc(S(=O)(=O)N(C)c2c(CN3CCN(C)CC3)cc(Br)cc2C(=O)NO)cc1` [Example 313, 5-Bromo-N-hydroxy-2-[(4-methoxy-benzenesulfonyl)-methyl-amino]-3-(4-methyl-piperazin-1-ylmethyl)-benzamide], the results for the IC50 at MMP-1, on MMP-9 [2] and against TACE were 180 nM, 1.4 nM and 26 nM, respectively. The “% Inhibition of Cartilage Weight Loss” value with cartilage is reported as 45.5%. Further, the “% Inhibition of Cartilage Collagen Loss” value with cartilage is 28.0* %.

In the case of `COc1ccc(S(=O)(=O)N(Cc2cccnc2)c2c(C)cc(-c3ccc(OC(F)(F)F)cc3)cc2C(=O)NO)cc1` [Example 404, 4-[(4-Methoxy-benzenesulfonyl)-pyridin-3-ylmethyl-amino]-5-methyl-4'-trifluoromethoxy-biphenyl-3-carboxylic acid hydroxyamide hydrochloride salt], the 50% inhibitory concentration (IC50) on MMP-1 came out at 1800 nM; at MMP-9 [2] it was 5.9 nM; on MMP-13 (read-out: MMP-13 IC50) it was 9.5 nM. Besides, at TACE, 1 µM produced 54% inhibition.

As for `COc1ccc(S(=O)(=O)N(Cc2cccnc2)c2c(C)cc(-c3ccc4c(c3)OCO4)cc2C(=O)NO)cc1` [Example 405, 5-Benzo[1,3]dioxol-5-yl-N-hydroxy-2-[(4-methoxy-benzenesulfonyl)-pyridin-3-ylmethyl-amino]-3-methyl-benzamide hydrochloride salt], the IC50 at MMP-1 was determined as 176 nM; on MMP-9 [2], 4.1 nM; at MMP-13 (read-out: MMP-13 IC50), 5.8 nM; at TACE (read-out: TACE IC50), 151 nM.

As for `Cc1cccc(C(=O)NO)c1N(Cc1cccnc1)S(=O)(=O)c1ccc(-c2ccc(C(F)(F)F)cc2)cc1` [Example 410, N-Hydroxy-3-methyl-2-[pyridin-3-ylmethyl-(4'-trifluoromethyl-biphenyl-4-sulfonyl)-amino]-benzamide], at MMP-1, the MMP-1 % inhibition is recorded as 47%(10). The inhibition at 1 µM worked out at 28% on MMP-9 [2] and 2% against TACE. Further, the MMP-13 % inhibition at MMP-13 is on record as 40%(.1).

For the molecule `COc1ccc(-c2ccc(S(=O)(=O)N(Cc3cccnc3)c3c(C)cccc3C(=O)NO)cc2)c(OC)c1` [Example 411, 2-[(2',4'-Dimethoxy-biphenyl-4-sulfonyl)-pyridin-3-ylmethyl-amino]-N-hydroxy-3-methyl-benzamide], the MMP-1 % inhibition at MMP-1 is listed as 32%(10). Also, the inhibition at 1 µM at MMP-9 [2] is 39%; at MMP-13 (read-out: MMP-13 % inhibition, footnote: 1µM) it was 44%; at TACE, 9%.

Take `Cc1cccc(C(=O)NO)c1N(Cc1cccnc1)S(=O)(=O)c1ccc(-c2cccs2)cc1` [Example 412, N-Hydroxy-3-methyl-2-[pyridin-3-ylmethyl-(4-thiophen-2-yl-benzenesulfonyl)-amino]-benzamide]: the MMP-1 % inhibition on MMP-1 is listed as 69%(10). Further, the figures for the inhibition at 1 µM at MMP-9 [2] and on TACE were 44% and 3%, respectively. In addition, the MMP-13 % inhibition on MMP-13 is on record as 42%(.1).

For `C#Cc1ccc(S(=O)(=O)N(Cc2cccnc2)c2c(C)cccc2C(=O)NO)cc1` [Example 413, 2-[(4-Ethynyl-benzenesulfonyl)-pyridin-3-ylmethyl-amino]-N-hydroxy-3-methyl-benzamide], the IC50 at MMP-1 was 529 nM; on MMP-9 [2], 55 nM; on MMP-13 (read-out: MMP-13 IC50), 75 nM. For the same molecule, the inhibition at 1 µM on TACE stood at 43%.

Regarding `Cc1cccc(C(=O)NO)c1N(Cc1cccnc1)S(=O)(=O)c1ccc(-c2cc3ccccc3s2)cc1` [Example 414, 2-[(4-Benzo[b]thiophen-2-yl-benzenesulfonyl)-pyridin-3-ylmethyl-amino]-N-hydroxy-3-methyl-benzamide], the MMP-1 % inhibition on MMP-1 is listed as 29%(10). The inhibition at 1 µM was 68% at MMP-9 [2] and 6% against TACE. In addition, the IC50 on MMP-13 (read-out: MMP-13 IC50) turned out to be 38 nM.

For the molecule `Cc1cccc(C(=O)NO)c1N(Cc1cccnc1)S(=O)(=O)c1ccc(-c2ccc3c(c2)OCO3)cc1` [Example 415, 2-[(4-Benzo[1,3]dioxol-5-yl-benzenesulfonyl)-pyridin-3-ylmethyl-amino]-N-hydroxy-3-methyl-benzamide], the MMP-1 % inhibition at MMP-1 was 37%(10). Also, the values for the inhibition at 1 µM on MMP-9 [2] and against TACE were 43% and 9%, respectively. Also, half-maximal inhibition against MMP-13 (IC50) was put at 26 nM.

On to “N-Hydroxy-2-[(4-methoxy-benzenesulfonyl)-pyridin-3-ylmethyl-amino]-5-methyl-3-thiophen-2-yl-benzamide [Example 145]”, for which the IC50 was found to be 55 nM on MMP-1, 7 nM on MMP-9 [2], 3 nM on MMP-13 (read-out: MMP-13 IC50) and 158 nM at TACE (read-out: TACE IC50).
